According to patent US20120202794A1 (priority 2011, published 2012):

Key:
HCV Replicon 1b = experiment: HCV inhibition assay, HCV replicon 1b (Clone A or ET-lunet cells; RT-PCR or luciferase reporter); assay type: cell-based; conditions: Hepatitis C virus, 96 h, HCV replicon 1b; 4 days incubation; read-out: Replicon 1b potency EC90
Experimental: HCV inhibition assay. Clone A or ET-lunet cells were seeded at a density of 1500 or 3000 cells per well in a 96-well plate, respectively. Test compounds serially diluted in culture medium without G418 were added to cells so that the final DMSO concentration was 0.5%. Plates were incubated at 37° C. in a 5% CO2 atmosphere for 4 days. Inhibition of HCV RNA replication was determined by real time PCR (RT-PCR) or by measuring the levels of luminescence expressed via the luciferase reporter gene encoded within the ET replicon. Briefly, for the RT-PCR assay, total RNA was extracted using the RNeasy-96 kit as recommended by the manufacturer (Qiagen, Valencia, Calif.), reversed transcribed into cDNA, and amplified using primer and probe mix for HCV 5′-NTR RNA and human ribosomal RNA (rRNA) in a one-step RT-PCR reaction as described previously (50). A relative quantification method was used to determine the extent of inhibition. The threshold cycle (Ct) of rRNA was subtracted from the Ct of HCV RNA (ΔCt). The average ΔCt of the DMSO cell controls was then subtracted from the ΔCt of the compound treated sample (ΔΔCt). Percent inhibition was determined by using the following equation: %=(1−(2^−ΔΔC^t))×100. For the luciferase-based replicon assay, luminescence was measured by using a Victor3 plate reader (Perkin-Elmer, Boston, Mass.) following the addition of Bright-Glo reagent as recommended by the manufacturer (Promega, Madison, Wis.). Percent inhibition of HCV replication was determined by comparing the change in luminescence of the drug treated wells versus the DMSO cell controls. EC50 and EC90 values, the concentrations at which 50% and 90% inhibition were achieved, were determined using the GraphPad Prism software (San Diego, Calif.).

[1] = Cell cytotoxicity assay (MTS), CC90 as reported in Table 1, cell line not stated; assay type: cell-based; conditions: human; cell line not given
Experimental: Cell cytotoxicity assays. Each compound (serially diluted from 100 μM) was added to Huh7 (2×10^3 cells/well), HepG2 (2×10^3 cells/well), BxPC3 (2×10^3 cells/well), or CEM (5×10^3 cells/well) cells and allowed to incubate for 8 days at 37° C. A medium only control was used to determine the minimum absorbance value […]. At the end of the growth period, MTS dye from the CellTiter 96 Aqueous One Solution Cell Proliferation Assay kit (Promega) was added to each well and the plate was incubated for an additional 2 hours. The absorbance at 490 nm was read with a Victor3 plate reader (Perkin Elmer) using the medium only control wells as blanks. The 90% inhibition value (CC90) was determined by comparing the absorbance in wells containing cells and test compound to untreated cell control wells.

SMILES | EC90 (HCV Replicon 1b) [µM] | CC90 at 8 days [1] [µM]
CC(C)C[C@H]1CN(C(=O)C#Cc2ccccc2)[C@@H](CC(C)C)C(=O)N1 [Compound 114] | 4.08 | > 10
Cc1ccc(C#CC(=O)N2C[C@H](CC(C)C)NC(=O)[C@@H]2CC(C)C)cc1 [Compound 115] | 5.01 | > 10
CC(C)C[C@H]1CN(C(=O)C#Cc2ccc(F)c(F)c2)[C@@H](CC(C)C)C(=O)N1 [Compound 116] | 9.65 | > 10
CC(C)C[C@H]1CN(C(=O)C#Cc2ccc(F)cc2F)[C@@H](CC(C)C)C(=O)N1 [Compound 117] | 2.66 | > 10
COc1ccc(C#CC(=O)N2C[C@H](CC(C)C)NC(=O)[C@@H]2CC(C)C)cc1 [Compound 118] | 2.96 | > 10
CC(C)C[C@H]1CN(C(=O)C#Cc2ccc(Cl)cc2F)[C@@H](CC(C)C)C(=O)N1 [Compound 119] | 6.2 | > 10
CC(C)C[C@H]1CN(C(=O)C#Cc2ccc(Cl)cc2)[C@@H](CC(C)C)C(=O)N1 [Compound 120] | 9.16 | > 10
CC(C)C[C@H]1CN(C(=O)C#Cc2cc(F)c(F)c(F)c2)[C@@H](CC(C)C)C(=O)N1 [Compound 121] | 3.23 | > 10
CC(C)C[C@H]1CN(C(=O)C#Cc2ccc(C(F)(F)F)cc2)[C@@H](CC(C)C)C(=O)N1 [Compound 122] | 7.54 | > 10
CC(C)C[C@H]1CN(C(=O)c2cc(-c3ccc(F)c(F)c3)on2)[C@@H](CC(C)C)C(=O)N1 [Compound 123] | 0.97 | > 10
CC(C)C[C@H]1CN(C(=O)c2cc(-c3ccc(F)cc3)on2)[C@@H](CC(C)C)C(=O)N1 [Compound 124] | 0.11 | > 10
CC(C)C[C@H]1CN(C(=O)c2cc(-c3ccc(Cl)cc3)on2)[C@@H](CC(C)C)C(=O)N1 [Compound 125] | 0.26 | > 10
Cc1ccc(-c2cc(C(=O)N3C[C@H](CC(C)C)NC(=O)[C@@H]3CC(C)C)no2)cc1 [Compound 126] | 1.66 | > 10
COc1ccc(-c2cc(C(=O)N3C[C@H](CC(C)C)NC(=O)[C@@H]3CC(C)C)no2)cc1 [Compound 127] | 1.14 | > 10
CC(C)C[C@H]1CN(C(=O)c2cc(-c3cccc(F)c3)on2)[C@@H](CC(C)C)C(=O)N1 [Compound 128] | 0.84 | > 10
CC(C)C[C@H]1CN(C(=O)c2cc(-c3cccc(Cl)c3)on2)[C@@H](CC(C)C)C(=O)N1 [Compound 129] | 2.93 | > 10
COc1cccc(-c2cc(C(=O)N3C[C@H](CC(C)C)NC(=O)[C@@H]3CC(C)C)no2)c1 [Compound 130] | 5.75 | > 10
COc1ccccc1-c1cc(C(=O)N2C[C@H](CC(C)C)NC(=O)[C@@H]2CC(C)C)no1 [Compound 131] | 3.49 | > 10
CC(C)C[C@H]1CN(C(=O)c2cc(-c3ccc(C(C)(C)C)cc3)on2)[C@@H](CC(C)C)C(=O)N1 [Compound 132] | 4.33 | > 10
CC(C)C[C@H]1CN(C(=O)c2cc(-c3ccc(F)cc3F)on2)[C@@H](CC(C)C)C(=O)N1 [Compound 133] | 0.6 | > 10
CC(C)C[C@H]1CN(C(=O)c2cc(-c3ccc(Cl)c(F)c3)on2)[C@@H](CC(C)C)C(=O)N1 [Compound 134] | 0.89 | > 10
CC(C)C[C@H]1CN(C(=O)c2cc(-c3ccc(Br)cc3)on2)[C@@H](CC(C)C)C(=O)N1 [Compound 135] | 0.47 | > 10
CC(C)C[C@H]1CN(C(=O)c2cc(-c3ccc(C#N)cc3)on2)[C@@H](CC(C)C)C(=O)N1 [Compound 136] | 1.53 | > 10
CC(C)C[C@H]1C(=O)N[C@@H](C2CCCC2)CN1C(=O)c1cc(-c2ccc(C#N)cc2)on1 [Compound 137] | 0.8 | > 10
